Results on six compounds are retold here after publication PMC9516332 (Frontiers in Oncology, 2022).

Molecules are shown by their SMILES.

What all share (test): Kinase panel profiling at 1 µmol/L (MSA or IMAP), percentage inhibition
Format in all cases: biochemical

The test system of test [1] is panel of 255 wild-type kinases. To be noted: for %-inhibition at 1 µmol/L, FYN [isoform b]: kinase FYN [isoform b]; for %-inhibition at 1 µmol/L, FYN [isoform b] / %-inhibition at 1 µmol/L, LYNb / %-inhibition at 1 µmol/L, PKCβ2 / %-inhibition at 1 µmol/L, SRM: 1 µmol/L single concentration; for %-inhibition at 1 µmol/L, LYNb: kinase LYNb; for %-inhibition at 1 µmol/L, PKCβ2: kinase PKCβ2; for %-inhibition at 1 µmol/L, SRM: kinase SRM.

In test [2] the target is T1, panel of 255 wild-type kinases (Homo sapiens, UniProt O15530).
T1 sequence (O15530 1-556): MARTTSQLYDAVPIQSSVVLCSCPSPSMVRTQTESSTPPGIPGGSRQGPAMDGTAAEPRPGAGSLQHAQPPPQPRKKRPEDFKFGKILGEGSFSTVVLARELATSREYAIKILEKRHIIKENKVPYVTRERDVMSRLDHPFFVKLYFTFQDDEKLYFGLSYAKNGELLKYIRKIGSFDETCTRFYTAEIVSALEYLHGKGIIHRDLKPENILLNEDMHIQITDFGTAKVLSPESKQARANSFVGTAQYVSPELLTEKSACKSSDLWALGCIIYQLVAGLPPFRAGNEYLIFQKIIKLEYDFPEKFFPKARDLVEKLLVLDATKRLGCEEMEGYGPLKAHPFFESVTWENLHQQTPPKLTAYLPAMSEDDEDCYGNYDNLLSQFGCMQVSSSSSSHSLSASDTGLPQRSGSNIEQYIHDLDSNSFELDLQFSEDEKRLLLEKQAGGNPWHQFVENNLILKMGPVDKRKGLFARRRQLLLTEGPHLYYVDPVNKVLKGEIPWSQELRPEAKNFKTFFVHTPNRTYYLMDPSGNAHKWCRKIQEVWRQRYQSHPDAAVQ
The note with it: kinase PDK1; 1 µmol/L single concentration; read-out: %-inhibition at 1 µmol/L, PDK1.

The target in test [3] is T2, panel of 255 wild-type kinases (Homo sapiens, UniProt P51817).
T2 sequence (P51817 1-358): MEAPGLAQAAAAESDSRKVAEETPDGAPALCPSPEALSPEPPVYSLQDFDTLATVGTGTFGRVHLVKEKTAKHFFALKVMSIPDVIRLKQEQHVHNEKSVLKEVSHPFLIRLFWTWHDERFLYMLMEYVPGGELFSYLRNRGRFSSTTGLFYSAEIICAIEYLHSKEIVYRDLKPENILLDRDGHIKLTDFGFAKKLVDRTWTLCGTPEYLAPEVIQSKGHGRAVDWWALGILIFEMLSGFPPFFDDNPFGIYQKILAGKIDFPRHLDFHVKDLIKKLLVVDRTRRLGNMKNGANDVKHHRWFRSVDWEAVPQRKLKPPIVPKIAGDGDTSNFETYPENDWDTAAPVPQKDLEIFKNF
The note with it: kinase PRKX; 1 µmol/L single concentration; read-out: %-inhibition at 1 µmol/L, PRKX.

The target of test [4] is T3, panel of 255 wild-type kinases (Homo sapiens, UniProt Q8IWQ3).
T3 sequence (Q8IWQ3 1-736): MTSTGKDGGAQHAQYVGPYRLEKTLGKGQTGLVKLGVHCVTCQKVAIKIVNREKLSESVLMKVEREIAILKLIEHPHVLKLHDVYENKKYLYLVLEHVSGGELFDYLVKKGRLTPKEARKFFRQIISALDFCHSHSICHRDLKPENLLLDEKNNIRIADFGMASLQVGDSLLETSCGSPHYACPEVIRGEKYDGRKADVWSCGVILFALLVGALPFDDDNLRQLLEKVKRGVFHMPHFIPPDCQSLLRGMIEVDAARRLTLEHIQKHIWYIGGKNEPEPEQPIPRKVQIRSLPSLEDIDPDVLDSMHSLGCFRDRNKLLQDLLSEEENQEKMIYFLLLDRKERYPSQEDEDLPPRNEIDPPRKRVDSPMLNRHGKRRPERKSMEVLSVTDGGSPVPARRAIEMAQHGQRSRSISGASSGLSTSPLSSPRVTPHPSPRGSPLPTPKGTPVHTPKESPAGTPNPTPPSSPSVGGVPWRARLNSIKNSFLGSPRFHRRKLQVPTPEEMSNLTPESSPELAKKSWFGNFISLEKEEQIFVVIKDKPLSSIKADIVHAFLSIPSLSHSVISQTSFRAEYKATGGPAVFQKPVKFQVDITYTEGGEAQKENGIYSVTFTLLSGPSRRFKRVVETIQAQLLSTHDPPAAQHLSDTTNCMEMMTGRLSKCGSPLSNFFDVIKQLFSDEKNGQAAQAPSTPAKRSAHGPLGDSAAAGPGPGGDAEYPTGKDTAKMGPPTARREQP
To be noted: BRSK2 kinase assay; 1 µmol/L single concentration; read-out: %-inhibition BRSK2.

Regarding `C[C@H]1Oc2cc(cnc2N)-c2c(nn(C)c2C#N)CN(C)C(=O)c2ccc(F)cc21` [lorlatinib], in test [1], the “%-inhibition at 1 µmol/L, FYN [isoform b]” value (“%-inhibition … [isoform b]” below) was found to be 4%; the “%-inhibition at 1 µmol/L, LYNb” value is 22%; the “%-inhibition at 1 µmol/L, PKCβ2” value is 4%; the “%-inhibition at 1 µmol/L, SRM” value was found to be 59%. The inhibition at 1 µM in test [2] was determined as 0.602%. Besides, the inhibition at 1 µM in test [3] came out at 3.38%. The inhibition at 1 µM in test [4] came to 36%.
For `CCn1c(=O)c(-c2cc(NC(=O)Nc3ccccc3)c(F)cc2Br)cc2cnc(NC)cc21` [ripretinib], in test [1], the “%-inhibition … [isoform b]” value is listed as 33%; the “%-inhibition at 1 µmol/L, LYNb” value worked out at 85%; the “%-inhibition at 1 µmol/L, PKCβ2” value is reported as -0.488%; the “%-inhibition at 1 µmol/L, SRM” value amounted to 32%. Further, the inhibition at 1 µM in test [2] was -7%. In addition, the inhibition at 1 µM in test [3] came to 0.705%. Further, the inhibition at 1 µM in test [4] came to 8%.
In the case of `Cc1nc(NC(=O)N2CCC[C@H]2C(N)=O)sc1-c1ccnc(C(C)(C)C(F)(F)F)c1` [alpelisib], in test [1], the “%-inhibition … [isoform b]” value is reported as -5.63%; the “%-inhibition at 1 µmol/L, LYNb” value is given as 4.67%; the “%-inhibition at 1 µmol/L, PKCβ2” value was 2.32%; the “%-inhibition at 1 µmol/L, SRM” value amounted to 1%. Also, in test [2], the inhibition at 1 µM is -0.422%. Further, the inhibition at 1 µM in test [3] was -4.49%. The inhibition at 1 µM in test [4] turned out to be 14%.
In the case of `FC(F)(F)c1ccc(CNc2ccc(Cc3c[nH]c4ncc(Cl)cc34)cn2)cn1` [pexidartinib], in test [1], the “%-inhibition … [isoform b]” value is listed as 1.3%; the “%-inhibition at 1 µmol/L, LYNb” value was found to be 19%; the “%-inhibition at 1 µmol/L, PKCβ2” value was determined as 3.47%; the “%-inhibition at 1 µmol/L, SRM” value is recorded as 0.409%. Moreover, the inhibition at 1 µM in test [2] was -4.67%. The inhibition at 1 µM in test [3] stood at 15%. Also, in test [4], the inhibition at 1 µM came out at 5.28%.
With `CCc1nc(C(N)=O)c(Nc2ccc(N3CCC(N4CCN(C)CC4)CC3)c(OC)c2)nc1NC1CCOCC1` [gilteritinib], in test [1], the “%-inhibition … [isoform b]” value came to 86%; the “%-inhibition at 1 µmol/L, LYNb” value was 84%; the “%-inhibition at 1 µmol/L, PKCβ2” value worked out at 31%; the “%-inhibition at 1 µmol/L, SRM” value was determined as 23%. For the same compound, the inhibition at 1 µM in test [2] is -1.87%. Moreover, in test [3], the inhibition at 1 µM was determined as 4%. The inhibition at 1 µM in test [4] was 23%.
On to `O=C(Nc1cnn2ccc(N3CCC[C@@H]3c3cc(F)ccc3F)nc12)N1CC[C@H](O)C1` [larotrectinib], for which the “kinases inhibited by more than 50%” value in test [1] (1 µmol/L inhibitor) was “TRKA, TRKB, TRKC, ROS1, and ACK1”. Moreover, in test [1], the “%-inhibition … [isoform b]” value turned out to be 1.64%; the “%-inhibition at 1 µmol/L, LYNb” value stood at 1.48%; the “%-inhibition at 1 µmol/L, PKCβ2” value was -2%; the “%-inhibition at 1 µmol/L, SRM” value is -3.2%. Moreover, the inhibition at 1 µM in test [2] was found to be 2.15%. Besides, the inhibition at 1 µM in test [3] was 0.637%. The inhibition at 1 µM in test [4] was 0.485%.
